Measured values from ChEMBL document CHEMBL1133900, “Improved synthesis and evaluation of 17-substituted aminoalkylgeldanamycin derivatives applicable to drug delivery systems” (Bioorg Med Chem Lett, 2001).

What follows are molecules tested on A2780 (assay: Compound was evaluated for antiproliferative activity against human ovarian carcinoma cell line A2780.).
Format: functional, cell-based

IC50 [µM] | Structure (SMILES)
0.234 | CO[C@H]1/C=C\C=C(/C)C(=O)NC2=CC(=O)C(NCC(O)CN)=C(C[C@@H](C)C[C@H](OC)[C@H](O)[C@@H](C)/C=C(\C)[C@@H]1OC(N)=O)C2=O (stereo partly drawn)
0.136 | CO[C@H]1/C=C\C=C(/C)C(=O)NC2=CC(=O)C(NCCCN)=C(C[C@@H](C)C[C@H](OC)[C@H](O)[C@@H](C)/C=C(\C)[C@@H]1OC(N)=O)C2=O
0.0034 | COC1=C2C[C@@H](C)C[C@H](OC)[C@H](O)[C@@H](C)/C=C(\C)[C@H](OC(N)=O)[C@@H](OC)/C=C\C=C(/C)C(=O)NC(=CC1=O)C2=O [GELDANAMYCIN]
